From ChEMBL document CHEMBL2440076, “New triarylpyrazoles as broad-spectrum anticancer agents: design, synthesis, and biological evaluation” (Eur J Med Chem, 2013)

Assays:
Assay type in all cases: functional
PC-3 [1] = test: Growth inhibition of human PC3 cells assessed as cell growth at 3X10'-5 M after 48 hrs by sulforhodamine B assay; conditions: PC-3, 48 h, read-out: Activity
SW-620 = test: Growth inhibition of human SW620 cells assessed as cell growth at 3X10'-8 M after 48 hrs by sulforhodamine B assay; conditions: SW-620, 48 h, read-out: Activity
[2] = Growth inhibition of human HCC2998 cells assessed as cell growth at 3X10'-5 M after 48 hrs by sulforhodamine B assay; conditions: HCC 2998, 48 h, read-out: Activity
CAKI-1 = test: Growth inhibition of human CAKI-1 cells assessed as cell growth at 3X10'-8 M after 48 hrs by sulforhodamine B assay; conditions: CAKI-1, 48 h, read-out: Activity
MOLT-4 [3] = test: Growth inhibition of human MOLT4 cells assessed as cell growth at 3X10'-7 M after 48 hrs by sulforhodamine B assay; conditions: MOLT-4, 48 h, read-out: Activity
SF-539 = test: Growth inhibition of human SF539 cells assessed as cell growth at 3X10'-9 M after 48 hrs by sulforhodamine B assay; conditions: SF-539, 48 h, read-out: Activity
SK-MEL-5 = test: Growth inhibition of human SK-MEL-5 cells assessed as cell growth at 3X10'-7 M after 48 hrs by sulforhodamine B assay; conditions: SK-MEL-5, 48 h, read-out: Activity
KM12 [4] = test: Growth inhibition of human KM12 cells assessed as cell growth at 3X10'-7 M after 48 hrs by sulforhodamine B assay; conditions: KM12, 48 h, read-out: Activity
NCI-H23 = test: Growth inhibition of human NCI-H23 cells assessed as cell growth at 3X10'-7 M after 48 hrs by sulforhodamine B assay; conditions: NCI-H23, 48 h, read-out: Activity
NCI-H460 = test: Growth inhibition of human NCI-H460 cells assessed as cell growth at 3X10'-7 M after 48 hrs by sulforhodamine B assay; conditions: NCI-H460, 48 h, read-out: Activity
KM12 [5] = test: Growth inhibition of human KM12 cells assessed as cell growth at 3X10'-6 M after 48 hrs by sulforhodamine B assay; conditions: KM12, 48 h, read-out: Activity
PC-3 [6] = test: Growth inhibition of human PC3 cells assessed as cell growth at 3X10'-7 M after 48 hrs by sulforhodamine B assay; conditions: PC-3, 48 h, read-out: Activity
786-0 = test: Growth inhibition of human 786-0 cells assessed as cell growth at 3X10'-6 M after 48 hrs by sulforhodamine B assay; conditions: 786-0, 48 h, read-out: Activity
HOP-92 = test: Growth inhibition of human HOP92 cells assessed as cell growth at 3X10'-5 M after 48 hrs by sulforhodamine B assay; conditions: HOP-92, 48 h, read-out: Activity
A498 = test: Growth inhibition of human A498 cells assessed as cell growth at 3X10'-9 M after 48 hrs by sulforhodamine B assay; conditions: A498, 48 h, read-out: Activity
DU-145 = test: Growth inhibition of human DU145 cells assessed as cell growth at 3X10'-8 M after 48 hrs by sulforhodamine B assay; conditions: DU-145, 48 h, read-out: Activity
SNB-19 = test: Growth inhibition of human SNB19 cells assessed as cell growth at 10^-6 M after 48 hrs by sulforhodamine B assay; conditions: SNB-19, 48 h, read-out: Activity
MOLT-4 [7] = test: Growth inhibition of human MOLT4 cells assessed as cell growth at 10^-5 M after 48 hrs by sulforhodamine B assay; conditions: MOLT-4, 48 h, read-out: Activity
HCT-116 = test: Growth inhibition of human HCT116 cells assessed as cell growth at 10^-8 M after 48 hrs by sulforhodamine B assay; conditions: HCT-116, 48 h, read-out: Activity
LOX IMVI = test: Growth inhibition of human LOXIMVI cells assessed as cell growth at 10^-8 M after 48 hrs by sulforhodamine B assay; conditions: read-out: Activity
[8] = Growth inhibition of human HCC2998 cells assessed as cell growth at 10^-4 M after 48 hrs by sulforhodamine B assay; conditions: HCC 2998, 48 h, read-out: Activity
UACC-62 = test: Growth inhibition of human UACC62 cells assessed as cell growth at 10^-7 M after 48 hrs by sulforhodamine B assay; conditions: UACC-62, 48 h, read-out: Activity
UO-31 = test: Growth inhibition of human UO31 cells assessed as cell growth at 10^-5 M after 48 hrs by sulforhodamine B assay; conditions: UO-31, 48 h, read-out: Activity
[9] = Growth inhibition of human NCI-ADR-RES cells assessed as cell growth at 10^-5 M after 48 hrs by sulforhodamine B assay; conditions: read-out: Activity
[10] = Growth inhibition of human Hs 578T cells assessed as cell growth at 10^-6 M after 48 hrs by sulforhodamine B assay; conditions: read-out: Activity
NCI-H522 = test: Growth inhibition of human NCI-H522 cells assessed as cell growth at 10^-5 M after 48 hrs by sulforhodamine B assay; conditions: NCI-H522, 48 h, read-out: Activity
Malme-3M = test: Growth inhibition of human MALME-3M cells assessed as cell growth at 10^-5 M after 48 hrs by sulforhodamine B assay; conditions: read-out: Activity
HT-29 = test: Growth inhibition of human HT-29 cells assessed as cell growth at 10^-7 M after 48 hrs by sulforhodamine B assay; conditions: HT-29, 48 h, read-out: Activity
[11] = Growth inhibition of human Hs 578T cells assessed as cell growth at 10^-5 M after 48 hrs by sulforhodamine B assay; conditions: read-out: Activity
HOP-62 [12] = test: Growth inhibition of human HOP62 cells assessed as cell growth at 10^-6 M after 48 hrs by sulforhodamine B assay; conditions: HOP-62, 48 h, read-out: Activity
HOP-62 [13] = test: Growth inhibition of human HOP62 cells assessed as cell growth at 10^-4 M after 48 hrs by sulforhodamine B assay; conditions: HOP-62, 48 h, read-out: Activity
T47D = test: Growth inhibition of human T47D cells assessed as cell growth at 10^-6 M after 48 hrs by sulforhodamine B assay; conditions: read-out: Activity
NCI-H322M = test: Growth inhibition of human NCI-H322M cells assessed as cell growth at 10^-7 M after 48 hrs by sulforhodamine B assay; conditions: read-out: Activity
RPMI-8226 = test: Growth inhibition of human RPMI8226 cells assessed as cell growth at 10^-7 M after 48 hrs by sulforhodamine B assay; conditions: RPMI-8226, 48 h, read-out: Activity
SF-295 = test: Growth inhibition of human SF295 cells assessed as cell growth at 10^-6 M after 48 hrs by sulforhodamine B assay; conditions: SF-295, 48 h, read-out: Activity
SK-OV-3 = test: Growth inhibition of human SKOV3 cells assessed as cell growth at 10^-7 M after 48 hrs by sulforhodamine B assay; conditions: SK-OV-3, 48 h, read-out: Activity
A549 = test: Growth inhibition of human A549/ATCC cells assessed as cell growth at 10^-4 M after 48 hrs by sulforhodamine B assay; conditions: A549, 48 h, read-out: Activity

COc1cc(-c2nn(-c3cccc(NC(=O)c4ccc(Cl)c(C(F)(F)F)c4)c3)cc2-c2ccncc2)ccc1Cl
growth at 30 µM (PC-3 [1]): 11% | growth at 0.03 µM (SW-620): 97% | growth at 30 µM [2]: 29% | growth at 0.03 µM (CAKI-1): 93% | growth at 0.3 µM (MOLT-4 [3]): 98% | growth at 0.003 µM (SF-539): 100% | growth at 0.3 µM (SK-MEL-5): 93% | growth at 0.3 µM (KM12 [4]): 95% | growth at 0.3 µM (NCI-H23): 92% | growth at 0.3 µM (NCI-H460): 98% | growth at 3 µM (KM12 [5]): 39% | growth at 0.3 µM (PC-3 [6]): 78% | growth at 3 µM (786-0): 71% | growth at 30 µM (HOP-92): -8% | growth at 0.003 µM (A498): 95% | growth at 0.03 µM (DU-145): 100%

O=C(Nc1cccc(-n2cc(-c3ccncc3)c(-c3ccc(Cl)c(O)c3)n2)c1)Nc1ccc(Cl)c(C(F)(F)F)c1
growth at 30 µM (PC-3 [1]): -19% | growth at 0.03 µM (SW-620): 101% | growth at 30 µM [2]: -64% | growth at 0.03 µM (CAKI-1): 91% | growth at 0.3 µM (MOLT-4 [3]): 83% | growth at 0.003 µM (SF-539): 99% | growth at 0.3 µM (SK-MEL-5): 89% | growth at 0.3 µM (KM12 [4]): 96% | growth at 0.3 µM (NCI-H23): 93% | growth at 0.3 µM (NCI-H460): 94% | growth at 3 µM (KM12 [5]): 2% | growth at 0.3 µM (PC-3 [6]): 73% | growth at 3 µM (786-0): 19% | growth at 30 µM (HOP-92): -63% | growth at 0.003 µM (A498): 91% | growth at 0.03 µM (DU-145): 105%

COc1cc(-c2nn(-c3cccc(NC(=O)c4ccc(N5CCOCC5)c(C(F)(F)F)c4)c3)cc2-c2ccncc2)ccc1Cl
growth at 1 µM (SNB-19): 38% | growth at 10 µM (MOLT-4 [7]): 9% | growth at 0.01 µM (HCT-116): 99% | growth at 0.01 µM (LOX IMVI): 98% | growth at 100 µM [8]: -46% | growth at 0.1 µM (UACC-62): 56% | growth at 10 µM (UO-31): -5% | growth at 10 µM [9]: 2% | growth at 1 µM [10]: 6% | growth at 10 µM (NCI-H522): -14% | growth at 10 µM (Malme-3M): -14% | growth at 0.1 µM (HT-29): 106% | growth at 10 µM [11]: 3% | growth at 1 µM (HOP-62 [12]): 38% | growth at 100 µM (HOP-62 [13]): 9% | growth at 1 µM (T47D): 42% | growth at 0.1 µM (NCI-H322M): 100% | growth at 0.1 µM (RPMI-8226): 88% | growth at 1 µM (SF-295): 4% | growth at 0.1 µM (SK-OV-3): 80% | growth at 100 µM (A549): 4%
